Calls of active or inactive are those of the source.
Assays:
[1] = molecular target: Hexokinase (Trypanosoma brucei, UniProt Q38C41); test: Confirmation assay for inhibitors of Trypanosoma brucei hexokinase 1-Analogue-first series. [Related pubchem assays (depositor defined):AID1430, AID1632, AID2516, AID2560, AID2579, AID2600, AID449725, AID492951]; type: functional
[2] = molecular target: Glyceraldehyde-3-phosphate dehydrogenase (Homo sapiens, UniProt P04406)
[3] = molecular target: T1, Alkaline phosphatase, tissue-nonspecific isozyme (Homo sapiens, UniProt P05186); test: human TNAP enzyme inhibitors, SAR follow-up, biochemical, luminescent, dose response (AID 1056)
T1 sequence (P05186 whole entry): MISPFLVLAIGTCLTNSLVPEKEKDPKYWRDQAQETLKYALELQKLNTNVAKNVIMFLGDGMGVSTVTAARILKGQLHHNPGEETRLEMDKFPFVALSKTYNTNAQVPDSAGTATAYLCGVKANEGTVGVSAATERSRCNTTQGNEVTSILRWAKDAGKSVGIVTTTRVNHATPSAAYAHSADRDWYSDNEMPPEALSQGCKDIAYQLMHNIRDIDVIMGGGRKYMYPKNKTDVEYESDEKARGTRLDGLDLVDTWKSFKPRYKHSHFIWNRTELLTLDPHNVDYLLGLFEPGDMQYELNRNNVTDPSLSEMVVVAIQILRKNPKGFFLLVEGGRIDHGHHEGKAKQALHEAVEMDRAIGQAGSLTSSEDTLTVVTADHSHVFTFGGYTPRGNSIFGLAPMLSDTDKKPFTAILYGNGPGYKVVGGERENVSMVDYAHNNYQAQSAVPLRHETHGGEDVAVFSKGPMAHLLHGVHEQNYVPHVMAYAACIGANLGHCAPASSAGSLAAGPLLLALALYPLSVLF

[4] = molecular target: Alkaline phosphatase, placental type (Homo sapiens, UniProt P05187); test: PLAP enzyme inhibitors, confirmation, biochemical, luminescence (AID 1512); type: functional
[5] = molecular target: Integrin alpha-4 (Homo sapiens, UniProt P13612); test: VLA-4 integrin allosteric ligands, SAR follow-up, cell-based, LIBS antibody binding, flow cytometry (AID 488791); type: functional
[6] = molecular target: Glutathione-S-transferase (Schistosoma japonicum, UniProt Q26513); test: biotin-GST/anti-GST TR-FRET signal inhibitors, dose response, artefact control for Vif-APOBEC3G degradation inhibitor project, biochemical (AID 1117362); type: functional
[7] = molecular target: Dual specificity tyrosine-phosphorylation-regulated kinase 1A (Rattus norvegicus, UniProt Q63470); type: biochemical, Homo sapiens
[8] = HeLa cell cytotoxicity, dose response, cytotoxicity control for MgcRacGAP inhibitor project (AID 624300); type: functional
[9] = molecular target: T2, Cysteine protease ATG4B (Homo sapiens, UniProt Q9Y4P1); type: functional;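 further: Fluorescence-based dose-response confirmation assay measuring inhibition of ATG4B activity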
T2 sequence (Q9Y4P1 whole entry): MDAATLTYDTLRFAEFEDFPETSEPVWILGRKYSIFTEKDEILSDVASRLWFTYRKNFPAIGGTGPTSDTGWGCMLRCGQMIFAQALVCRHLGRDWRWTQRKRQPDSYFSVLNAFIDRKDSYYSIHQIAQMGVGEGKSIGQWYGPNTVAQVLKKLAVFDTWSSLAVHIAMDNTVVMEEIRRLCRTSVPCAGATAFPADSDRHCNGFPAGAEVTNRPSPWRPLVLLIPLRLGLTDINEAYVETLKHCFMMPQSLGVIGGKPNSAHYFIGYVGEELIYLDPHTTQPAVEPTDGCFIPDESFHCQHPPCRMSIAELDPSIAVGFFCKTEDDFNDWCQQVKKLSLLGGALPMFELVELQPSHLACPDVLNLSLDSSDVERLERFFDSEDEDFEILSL

[10] = molecular target: Nonstructural protein 1 (Influenza A virus, UniProt Q194T2); type: functional, Influenza A virus (A/California/07/2009(H1N1))
[11] = THP-1 cell cytotoxicity, dose response, cytotoxicity control for Vif-APOBEC3G degradation inhibitor project, THP-1 cells (AID 1117359); type: functional; conditions: Human immunodeficiency virus 1, THP-1
[12] = molecular target: T3, Rac GTPase-activating protein 1 (Homo sapiens, UniProt Q9H0H5); test: MgcRacGAP GTPase-activating activity inhibitors, confirmation, biochemical, ADP Hunter fluorescence, primary and confirmatory (AID 624330); type: functional
T3 sequence (Q9H0H5 whole entry): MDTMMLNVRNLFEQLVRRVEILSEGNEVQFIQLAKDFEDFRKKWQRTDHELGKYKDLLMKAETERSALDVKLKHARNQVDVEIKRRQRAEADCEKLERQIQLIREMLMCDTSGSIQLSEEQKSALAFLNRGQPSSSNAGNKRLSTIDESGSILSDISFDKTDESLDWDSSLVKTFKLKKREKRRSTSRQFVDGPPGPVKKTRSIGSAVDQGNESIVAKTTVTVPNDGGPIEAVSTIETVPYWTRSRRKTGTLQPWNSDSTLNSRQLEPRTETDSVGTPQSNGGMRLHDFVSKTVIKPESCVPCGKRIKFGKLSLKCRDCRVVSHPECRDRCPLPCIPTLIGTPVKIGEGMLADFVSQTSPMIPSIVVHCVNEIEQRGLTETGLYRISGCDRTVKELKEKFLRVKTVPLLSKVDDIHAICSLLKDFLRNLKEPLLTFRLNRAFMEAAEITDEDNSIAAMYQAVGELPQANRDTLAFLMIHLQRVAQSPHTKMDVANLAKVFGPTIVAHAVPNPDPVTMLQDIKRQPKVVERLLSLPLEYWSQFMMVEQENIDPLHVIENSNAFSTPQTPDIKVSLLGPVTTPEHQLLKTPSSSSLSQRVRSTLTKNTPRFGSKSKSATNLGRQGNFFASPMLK

[13] = molecular target: T4, DNA repair protein RAD52 homolog (Homo sapiens, UniProt P43351); type: functional, biochemical
T4 sequence (P43351 whole entry): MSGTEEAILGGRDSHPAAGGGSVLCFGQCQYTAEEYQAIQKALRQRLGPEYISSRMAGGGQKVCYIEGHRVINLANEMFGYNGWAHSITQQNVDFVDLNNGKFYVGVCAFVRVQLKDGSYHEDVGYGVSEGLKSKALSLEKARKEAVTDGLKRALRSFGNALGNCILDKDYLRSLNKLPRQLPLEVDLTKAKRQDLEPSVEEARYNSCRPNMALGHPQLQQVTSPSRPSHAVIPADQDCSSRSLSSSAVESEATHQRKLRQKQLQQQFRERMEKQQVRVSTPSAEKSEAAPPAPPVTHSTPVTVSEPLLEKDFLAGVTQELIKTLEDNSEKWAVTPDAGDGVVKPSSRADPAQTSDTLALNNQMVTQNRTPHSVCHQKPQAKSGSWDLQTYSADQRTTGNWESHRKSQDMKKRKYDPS

[14] = molecular target: Troponin, cardiac muscle (Homo sapiens, UniProt P19429+P45379+P63316); test: inhibitors of cardiac thin filament calcium sensitivity, dose response, biochemical, fluorescence, cardiac regulated thin filaments, triplicate IC50 (AID 504742); type: protein-complex assay
[15] = molecular target: Phospholipase A2 (Homo sapiens, UniProt P04054); type: functional;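 further: confirmatory dose-response counterscreen on phospholipase A2, testing hits that came from an ultra-high-throughput screen for ATG4B inhibitors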
[16] = molecular target: T5, Short transient receptor potential channel 4 (Mus musculus, UniProt Q9QUQ5); test: TRPC4 positive allosteric modulators, dose response, cell-based, HEK293 TRPC4/mu-opioid, Fluo-4 calcium, EC20 DAMGO (AID 434941); type: functional
T5 sequence (Q9QUQ5 whole entry): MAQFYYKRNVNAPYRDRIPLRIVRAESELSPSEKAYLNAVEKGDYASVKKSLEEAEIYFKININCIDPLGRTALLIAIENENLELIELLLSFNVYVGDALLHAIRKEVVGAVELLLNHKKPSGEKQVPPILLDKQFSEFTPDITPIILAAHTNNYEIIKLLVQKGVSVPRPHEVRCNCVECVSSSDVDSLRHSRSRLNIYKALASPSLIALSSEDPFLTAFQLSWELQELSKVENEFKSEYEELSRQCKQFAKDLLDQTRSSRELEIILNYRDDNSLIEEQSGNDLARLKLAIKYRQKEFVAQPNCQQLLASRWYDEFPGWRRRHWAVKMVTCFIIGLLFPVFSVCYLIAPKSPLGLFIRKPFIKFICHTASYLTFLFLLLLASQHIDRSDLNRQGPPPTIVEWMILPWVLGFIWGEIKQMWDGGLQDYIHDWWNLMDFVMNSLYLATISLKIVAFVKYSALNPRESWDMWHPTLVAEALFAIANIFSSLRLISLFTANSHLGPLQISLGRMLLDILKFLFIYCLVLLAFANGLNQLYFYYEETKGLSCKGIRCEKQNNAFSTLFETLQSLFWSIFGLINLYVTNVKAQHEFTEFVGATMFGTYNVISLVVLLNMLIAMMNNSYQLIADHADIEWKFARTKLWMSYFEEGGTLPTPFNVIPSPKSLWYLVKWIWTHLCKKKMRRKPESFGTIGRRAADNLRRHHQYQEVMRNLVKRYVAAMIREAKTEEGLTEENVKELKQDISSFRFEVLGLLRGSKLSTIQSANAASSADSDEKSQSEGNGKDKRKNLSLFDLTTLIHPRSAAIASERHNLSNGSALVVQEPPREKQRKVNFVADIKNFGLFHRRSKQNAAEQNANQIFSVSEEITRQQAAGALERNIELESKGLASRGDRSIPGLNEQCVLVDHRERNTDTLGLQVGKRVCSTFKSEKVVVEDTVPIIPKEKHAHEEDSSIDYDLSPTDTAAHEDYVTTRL

[17] = test system: H4; test: Luminescence Cell-Based Dose Response HTS to Identify Activators of 5'UTR Stem-Loop Driven Prion Protein mRNA Translation in H4 Neuroglioblastoma Cells. [Related pubchem assays: 1829 (Project Summary), 1814 (Primary HTS)]; type: functional; conditions: Homo sapiens
[18] = Luminescence Cell-Based Dose Confirmation HTS to Identify Activators of 5'UTR Stem-Loop Driven Alpha-Synuclein mRNA Translation in H4 Neuroglioblastoma Cells. [Related pubchem assays: 1829 (Project Summary), 1814 (Primary HTS)]; type: functional
[19] = molecular target: E3 ubiquitin-protein ligase Mdm2/Protein Mdm4 (Homo sapiens, UniProt O15151+Q00987); test: Mdm2-MdmX interaction inhibitors, dose response, luminescence detection (AID 504593); type: functional
[20] = Luminescence Cell-Based Dose Response HTS to Identify Activators of Luciferase Translation or Activity in H4 […] Cells. [Related pubchem assays: 1829 (Project Summary), 1814 (Primary HTS)]; type: functional
[21] = molecular target: T6, Kappa-type opioid receptor (Homo sapiens, UniProt P41145); test: SAR analysis of small molecule antagonists of the kappa opioid receptor via a luminescent beta-arrestin assay - Set 6. [Related pubchem assays (depositor defined):AID1777, AID1778, AID1785, AID1786, AID1966, AID2133, AID2136, AID2285]; type: functional
[22] = molecular target: Delta-type opioid receptor (Homo sapiens, UniProt P41143); test: SAR Analysis of Antagonists of the DOR Receptor using an Image-Based Assay - Set 3. [Related pubchem assays (depositor defined):AID1777, AID1785]; type: functional;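 further: U2OS cells expressing DOR1 and beta-arrestin GFP stimulated with 100 nM SNC80; imaging of GFP-tagged beta-arrestin moving into spots after receptor activation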
[23] = molecular target: T6, Kappa-type opioid receptor; test: SAR analysis of Antagonists of the Kappa Opioid Receptor (KOR) using an Image-Based Assay - Set 4. [Related pubchem assays (depositor defined):AID1777, AID1785]; type: functional
[24] = molecular target: Mu-type opioid receptor (Homo sapiens, UniProt P35372); test: SAR Analysis of Antagonists of the MOR Receptor using an Image-Based Assay - Set 3. [Related pubchem assays (depositor defined):AID1777, AID1785, AID1786, AID1966, AID2133, AID2136, AID2284, AID2285, AID2420]; type: functional
[25] = molecular target: T6, Kappa-type opioid receptor; test: SAR analysis of Antagonists of the Kappa Opioid Receptor (KOR) using an Image-Based Assay - Set 3. [Related pubchem assays (depositor defined):AID1777, AID1785]; type: functional
[26] = molecular target: T6, Kappa-type opioid receptor; test: SAR analysis of small molecule antagonists of the kappa opioid receptor via a luminescent beta-arrestin assay - Set 3. [Related pubchem assays (depositor defined):AID1777, AID1778, AID1785, AID1786, AID1966, AID2133, AID2136, AID2285, AID2495]; type: functional

T6 sequence (P41145 whole entry): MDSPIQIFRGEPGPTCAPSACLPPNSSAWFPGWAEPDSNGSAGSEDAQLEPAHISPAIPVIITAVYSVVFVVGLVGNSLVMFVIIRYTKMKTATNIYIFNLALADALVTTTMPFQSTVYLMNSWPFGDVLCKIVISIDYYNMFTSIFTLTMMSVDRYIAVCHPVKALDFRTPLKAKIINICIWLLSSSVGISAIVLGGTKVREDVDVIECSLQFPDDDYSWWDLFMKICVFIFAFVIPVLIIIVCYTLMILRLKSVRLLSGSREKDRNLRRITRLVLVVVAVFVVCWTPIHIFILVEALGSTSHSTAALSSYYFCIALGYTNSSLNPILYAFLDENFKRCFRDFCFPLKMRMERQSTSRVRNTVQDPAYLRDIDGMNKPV
Chain of Nonstructural protein 1 (Q194T2 whole entry): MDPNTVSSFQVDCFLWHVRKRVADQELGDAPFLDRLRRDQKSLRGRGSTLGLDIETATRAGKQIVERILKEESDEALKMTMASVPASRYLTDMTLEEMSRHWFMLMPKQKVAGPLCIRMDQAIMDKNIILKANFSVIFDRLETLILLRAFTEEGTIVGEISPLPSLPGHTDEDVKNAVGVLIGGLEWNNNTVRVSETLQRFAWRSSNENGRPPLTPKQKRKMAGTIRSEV
Chain of E3 ubiquitin-protein ligase Mdm2/Protein Mdm4 (Q00987 whole entry): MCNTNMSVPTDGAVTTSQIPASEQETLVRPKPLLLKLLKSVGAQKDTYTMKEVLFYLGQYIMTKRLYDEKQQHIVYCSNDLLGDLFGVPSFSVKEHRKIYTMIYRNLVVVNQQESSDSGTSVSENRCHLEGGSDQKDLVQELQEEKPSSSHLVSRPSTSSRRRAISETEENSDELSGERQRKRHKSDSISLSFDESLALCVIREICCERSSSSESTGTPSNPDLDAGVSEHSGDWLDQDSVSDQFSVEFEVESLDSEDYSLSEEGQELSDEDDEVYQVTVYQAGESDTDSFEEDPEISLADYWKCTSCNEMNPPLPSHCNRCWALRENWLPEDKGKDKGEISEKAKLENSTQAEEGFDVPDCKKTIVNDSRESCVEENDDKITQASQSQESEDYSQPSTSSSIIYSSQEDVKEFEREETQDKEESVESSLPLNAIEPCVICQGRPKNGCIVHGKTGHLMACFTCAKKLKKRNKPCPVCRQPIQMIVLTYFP
Chain of E3 ubiquitin-protein ligase Mdm2/Protein Mdm4 (O15151 whole entry): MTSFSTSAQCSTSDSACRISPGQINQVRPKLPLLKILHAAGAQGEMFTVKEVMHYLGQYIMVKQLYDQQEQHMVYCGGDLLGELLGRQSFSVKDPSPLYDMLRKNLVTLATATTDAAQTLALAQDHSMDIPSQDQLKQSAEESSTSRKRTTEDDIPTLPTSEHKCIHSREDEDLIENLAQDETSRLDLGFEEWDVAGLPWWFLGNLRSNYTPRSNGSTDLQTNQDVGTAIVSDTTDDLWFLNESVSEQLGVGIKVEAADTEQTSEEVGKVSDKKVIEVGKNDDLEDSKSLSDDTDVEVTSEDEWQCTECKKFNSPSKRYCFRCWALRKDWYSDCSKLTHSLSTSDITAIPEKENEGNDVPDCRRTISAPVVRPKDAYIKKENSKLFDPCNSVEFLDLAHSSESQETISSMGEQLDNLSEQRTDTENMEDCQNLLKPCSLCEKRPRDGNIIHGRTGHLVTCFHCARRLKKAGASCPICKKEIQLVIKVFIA
Chain of Glutathione-S-transferase (Q26513 whole entry): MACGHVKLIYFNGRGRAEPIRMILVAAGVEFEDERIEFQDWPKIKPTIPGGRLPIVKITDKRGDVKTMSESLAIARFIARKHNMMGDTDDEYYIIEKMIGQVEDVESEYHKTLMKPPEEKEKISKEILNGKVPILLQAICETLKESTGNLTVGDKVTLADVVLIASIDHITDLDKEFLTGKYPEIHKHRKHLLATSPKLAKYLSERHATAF
Chain of Hexokinase (Q38C41 whole entry): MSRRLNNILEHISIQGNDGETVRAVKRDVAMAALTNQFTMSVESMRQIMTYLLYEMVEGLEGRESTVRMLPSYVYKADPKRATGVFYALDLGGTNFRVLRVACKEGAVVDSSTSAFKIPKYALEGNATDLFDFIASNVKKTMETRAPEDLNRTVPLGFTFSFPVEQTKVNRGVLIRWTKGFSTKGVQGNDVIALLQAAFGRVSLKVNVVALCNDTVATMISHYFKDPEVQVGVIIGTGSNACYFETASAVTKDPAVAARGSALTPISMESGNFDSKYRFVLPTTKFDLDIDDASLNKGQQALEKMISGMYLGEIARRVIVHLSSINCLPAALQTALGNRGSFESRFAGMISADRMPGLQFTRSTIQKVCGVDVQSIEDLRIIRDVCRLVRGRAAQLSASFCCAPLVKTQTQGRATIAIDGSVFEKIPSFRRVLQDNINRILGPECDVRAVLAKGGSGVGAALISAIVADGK
Chain of Delta-type opioid receptor (P41143 whole entry): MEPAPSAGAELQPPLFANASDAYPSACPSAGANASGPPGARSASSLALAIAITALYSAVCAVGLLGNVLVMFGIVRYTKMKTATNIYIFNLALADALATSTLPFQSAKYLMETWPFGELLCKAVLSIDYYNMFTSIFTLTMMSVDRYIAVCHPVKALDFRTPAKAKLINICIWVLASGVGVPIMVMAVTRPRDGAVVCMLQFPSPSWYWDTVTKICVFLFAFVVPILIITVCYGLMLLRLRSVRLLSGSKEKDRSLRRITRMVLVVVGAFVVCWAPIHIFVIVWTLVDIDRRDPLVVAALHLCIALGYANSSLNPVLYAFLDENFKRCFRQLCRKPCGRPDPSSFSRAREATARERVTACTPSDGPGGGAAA
Chain of Glyceraldehyde-3-phosphate dehydrogenase (P04406 whole entry): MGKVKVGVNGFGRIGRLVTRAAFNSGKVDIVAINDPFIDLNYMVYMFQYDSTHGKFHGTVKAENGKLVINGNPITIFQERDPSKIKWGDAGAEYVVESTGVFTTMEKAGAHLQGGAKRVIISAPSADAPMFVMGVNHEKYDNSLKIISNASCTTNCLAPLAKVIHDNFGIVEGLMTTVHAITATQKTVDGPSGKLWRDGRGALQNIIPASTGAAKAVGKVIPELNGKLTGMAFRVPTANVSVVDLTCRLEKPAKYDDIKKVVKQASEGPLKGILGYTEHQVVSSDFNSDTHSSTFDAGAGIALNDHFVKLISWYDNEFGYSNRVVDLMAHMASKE
Chain of Integrin alpha-4 (P13612 whole entry): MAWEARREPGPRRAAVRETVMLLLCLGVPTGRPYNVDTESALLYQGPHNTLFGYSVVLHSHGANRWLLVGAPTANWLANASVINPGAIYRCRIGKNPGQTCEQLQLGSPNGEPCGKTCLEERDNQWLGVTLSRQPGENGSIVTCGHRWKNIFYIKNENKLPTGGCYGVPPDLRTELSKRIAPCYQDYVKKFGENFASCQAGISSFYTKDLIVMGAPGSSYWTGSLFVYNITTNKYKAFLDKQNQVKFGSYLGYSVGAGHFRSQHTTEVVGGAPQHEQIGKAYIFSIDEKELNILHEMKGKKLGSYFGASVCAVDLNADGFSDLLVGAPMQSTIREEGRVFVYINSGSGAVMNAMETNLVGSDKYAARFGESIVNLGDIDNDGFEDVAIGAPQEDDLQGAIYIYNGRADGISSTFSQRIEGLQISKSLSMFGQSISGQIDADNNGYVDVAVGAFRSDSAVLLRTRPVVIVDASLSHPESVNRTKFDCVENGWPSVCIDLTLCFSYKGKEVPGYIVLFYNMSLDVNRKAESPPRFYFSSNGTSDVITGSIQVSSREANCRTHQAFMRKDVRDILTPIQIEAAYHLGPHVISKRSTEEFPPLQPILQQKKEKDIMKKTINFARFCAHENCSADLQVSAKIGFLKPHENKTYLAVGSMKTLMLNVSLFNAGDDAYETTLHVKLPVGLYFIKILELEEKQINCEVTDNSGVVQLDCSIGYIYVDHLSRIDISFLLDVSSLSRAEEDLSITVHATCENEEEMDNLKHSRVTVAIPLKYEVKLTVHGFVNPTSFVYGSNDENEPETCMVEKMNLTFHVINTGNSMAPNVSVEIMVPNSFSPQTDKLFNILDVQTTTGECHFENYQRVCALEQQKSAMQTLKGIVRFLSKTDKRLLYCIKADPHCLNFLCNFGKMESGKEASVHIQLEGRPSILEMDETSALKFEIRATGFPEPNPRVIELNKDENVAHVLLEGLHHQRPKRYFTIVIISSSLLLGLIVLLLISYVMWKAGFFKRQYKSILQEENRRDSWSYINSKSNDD
Chain of Alkaline phosphatase, placental type (P05187 whole entry): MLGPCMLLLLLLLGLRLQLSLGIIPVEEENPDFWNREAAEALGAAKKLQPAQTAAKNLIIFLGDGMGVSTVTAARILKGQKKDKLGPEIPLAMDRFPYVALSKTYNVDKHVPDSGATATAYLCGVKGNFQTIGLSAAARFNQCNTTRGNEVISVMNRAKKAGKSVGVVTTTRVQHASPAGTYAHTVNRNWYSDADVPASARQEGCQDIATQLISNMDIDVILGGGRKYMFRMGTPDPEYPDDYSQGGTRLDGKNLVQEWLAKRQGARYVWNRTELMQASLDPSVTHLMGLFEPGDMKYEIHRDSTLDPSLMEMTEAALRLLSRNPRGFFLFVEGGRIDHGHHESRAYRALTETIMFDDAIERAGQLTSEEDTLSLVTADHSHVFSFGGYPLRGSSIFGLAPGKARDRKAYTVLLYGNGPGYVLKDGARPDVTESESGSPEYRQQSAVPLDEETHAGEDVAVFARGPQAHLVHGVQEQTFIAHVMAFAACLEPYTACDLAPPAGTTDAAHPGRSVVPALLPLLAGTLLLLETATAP
Chain of Phospholipase A2 (P04054 whole entry): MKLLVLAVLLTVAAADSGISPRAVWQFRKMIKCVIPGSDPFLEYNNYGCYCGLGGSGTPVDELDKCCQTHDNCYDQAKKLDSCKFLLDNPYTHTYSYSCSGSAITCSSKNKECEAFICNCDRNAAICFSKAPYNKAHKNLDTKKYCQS

For `CCCCCC(=O)Nc1cc(Cl)ccc1C(=O)O`, the IC50 [1] was > 25 µM (inactive).

In the case of `NNC(=O)c1cc(-c2ccc(Cl)cc2Cl)n[nH]1`, the IC50 [2] is reported as > 100 µM (not active), the IC50 [3] is reported as 0.0684 µM (active) and the IC50 [4] is reported as > 100 µM (inactive).

In the case of `c1ccc2c(-c3ccc(OCCN4CCCC4)cc3)c(-c3ccsc3)sc2c1`, the EC50 [5] is reported as > 49.4 µM (inactive).

For `N=C(N)c1ccc(/N=N/c2c(O)ccc3c2[nH]c2ccccc23)cc1`, the IC50 [6] was 2.48 µM (active), the AC50 [7] was 1.31 µM (active) and the CC50 [8] was 67.4 µM (active). The IC50 [9] was 5.61 µM (active), the IC50 [10] was 6.65 µM (active) and the CC50 [11] was 12.5 µM (active). For the same compound, the IC50 [12] was 12.7 µM (active), the AC50 [13] was 2.15 µM (active) and the IC50 [14] was 8.6 µM (active). The IC50 [15] was 9.6 µM (active).

For `Cc1cc(-c2ccc(C)c(S(=O)(=O)N3CCN(c4ccccn4)CC3)c2)on1`, the EC50 [16] was 4.22 µM (active).

With `CC1(C)C(=O)Nc2ccccc2N1C(=O)Cn1ncc(Cl)c(Cl)c1=O` the EC50 [17] was > 120 µM (not active), the EC50 [18] was > 60 µM (not active) and the IC50 [19] was 5.11 µM (active). For the same compound, the EC50 [20] was > 120 µM (not active).

In the case of `O=C(Cn1c(=O)c2cccn2c2cccnc21)NCCCN1CCN(c2ccccc2)CC1`, the IC50 [21] is reported as > 20 µM (inactive), the IC50 [22] is reported as > 32 µM (inactive) and the IC50 [23] is reported as > 32 µM (inactive). For the same compound, the IC50 [24] was > 32 µM (inactive), the IC50 [25] was 12.7 µM (inactive) and the IC50 [26] was 1.17 µM (active).
